Experimental data published in PubChem BioAssay AID2060611 (Molecular Pharmacology Branch, DTP, NCI, 2025).

System: 628569-122-R-J1-PDC complex spheroid viability
Test: Anticancer human tumor 628569-122-R-J1-PDC patient-derived head and neck squamous carcinoma cell line growth inhibition [CLK]
Conditions: for IC50: curve of first compound; for viability, T/C: stronger effect = lower value
How it was run: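 Patient-derived tumor cells grown as complex spheroids with HUVEC endothelial cells and mesenchymal stem cells, treated with drug combinations. Concentrations descend in half-log steps from near clinical Cmax, or from 10 microM if Cmax unknown.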

[1] = second compound 0.0316 µM, first compound 0.0316 µM
[2] = second compound 0.0316 µM, first compound 0.1 µM
[3] = second compound 0.0316 µM, first compound 0.316 µM
[4] = second compound 0.0316 µM, first compound 1 µM
[5] = second compound 0.1 µM, first compound 0.0316 µM
[6] = second compound 0.1 µM, first compound 0.1 µM
[7] = second compound 0.1 µM, first compound 0.316 µM
[8] = second compound 0.1 µM, first compound 1 µM
[9] = second compound 0.316 µM, first compound 0.0316 µM
[10] = second compound 0.316 µM, first compound 0.1 µM
[11] = second compound 0.316 µM, first compound 0.316 µM
[12] = second compound 0.316 µM, first compound 1 µM
[13] = second compound 1 µM, first compound 0.0316 µM
[14] = second compound 1 µM, first compound 0.1 µM
[15] = second compound 1 µM, first compound 0.316 µM
[16] = second compound 1 µM, first compound 1 µM
[17] = second compound 3.16 µM, first compound 0.0316 µM
[18] = second compound 3.16 µM, first compound 0.1 µM
[19] = second compound 3.16 µM, first compound 0.316 µM
[20] = second compound 3.16 µM, first compound 1 µM
[21] = second compound 10 µM, first compound 0.0316 µM
[22] = second compound 10 µM, first compound 0.1 µM
[23] = second compound 10 µM, first compound 0.316 µM
[24] = second compound 10 µM, first compound 1 µM
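Note: spheroids exposed to agents for seven days before readout.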
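Throughout, for viability, T/C: 100% = DMSO vehicle control viability.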

Compound: NC(=O)C(=Cn1cnc(-c2cc(C(F)(F)F)cc(C(F)(F)F)c2)n1)c1cncnc1 + CNC(=O)c1ccc(Nc2nc(OC3CCCC3)c3c(-c4ccc5nc(C)oc5c4)c[nH]c3n2)c(OC)c1
- IC50 (second compound 0.0316 µM): 681 nM
- IC50 (second compound 0.1 µM): 137 nM
- IC50 (second compound 0.316 µM): < 9.49 nM
- IC50 (second compound 1 µM): < 9.49 nM
- IC50 (second compound 3.16 µM): < 9.49 nM
- IC50 (second compound 10 µM): < 9.49 nM
- viability, T/C (second compound 0.0316 µM, first compound 0.00949 µM): 75.8%
- viability, T/C (second compound 0.0316 µM, first compound 0.03 µM): 61.6%
- viability, T/C (second compound 0.0316 µM, first compound 0.0949 µM): 69.8%
- viability, T/C (second compound 0.0316 µM, first compound 0.3 µM): 52%
- viability, T/C (second compound 0.0316 µM, first compound 0.949 µM): 50.8%
- viability, T/C (second compound 0.0316 µM, first compound 3 µM): 35.6%
- viability, T/C (second compound 0.1 µM, first compound 0.00949 µM): 52.4%
- viability, T/C (second compound 0.1 µM, first compound 0.03 µM): 53.9%
- viability, T/C (second compound 0.1 µM, first compound 0.0949 µM): 50.5%
- viability, T/C (second compound 0.1 µM, first compound 0.3 µM): 47.5%
- viability, T/C (second compound 0.1 µM, first compound 0.949 µM): 39.5%
- viability, T/C (second compound 0.1 µM, first compound 3 µM): 32.4%
- viability, T/C (second compound 0.316 µM, first compound 0.00949 µM): 47.1%
- viability, T/C (second compound 0.316 µM, first compound 0.03 µM): 51.7%
- viability, T/C (second compound 0.316 µM, first compound 0.0949 µM): 44.1%
- viability, T/C (second compound 0.316 µM, first compound 0.3 µM): 42.5%
- viability, T/C (second compound 0.316 µM, first compound 0.949 µM): 35.9%
- viability, T/C (second compound 0.316 µM, first compound 3 µM): 33.8%
- viability, T/C (second compound 1 µM, first compound 0.00949 µM): 40.7%
- viability, T/C (second compound 1 µM, first compound 0.03 µM): 45.9%
- viability, T/C (second compound 1 µM, first compound 0.0949 µM): 31.9%
- viability, T/C (second compound 1 µM, first compound 0.3 µM): 29.5%
- viability, T/C (second compound 1 µM, first compound 0.949 µM): 26.2%
- viability, T/C (second compound 1 µM, first compound 3 µM): 25.7%
- viability, T/C (second compound 3.16 µM, first compound 0.00949 µM): 36.9%
- viability, T/C (second compound 3.16 µM, first compound 0.03 µM): 41.2%
- viability, T/C (second compound 3.16 µM, first compound 0.0949 µM): 28.7%
- viability, T/C (second compound 3.16 µM, first compound 0.3 µM): 25.5%
- viability, T/C (second compound 3.16 µM, first compound 0.949 µM): 15.9%
- viability, T/C (second compound 3.16 µM, first compound 3 µM): 12.3%
- viability, T/C (second compound 10 µM, first compound 0.00949 µM): 38.6%
- viability, T/C (second compound 10 µM, first compound 0.03 µM): 33.7%
- viability, T/C (second compound 10 µM, first compound 0.0949 µM): 30.7%
- viability, T/C (second compound 10 µM, first compound 0.3 µM): 21.4%
- viability, T/C (second compound 10 µM, first compound 0.949 µM): 17.7%
- viability, T/C (second compound 10 µM, first compound 3 µM): 13.7%

Compound: CCc1c2c(nc3ccc(O)cc13)-c1cc3c(c(=O)n1C2)COC(=O)[C@]3(O)CC + CN1CCN(c2cc(C(=O)Nc3cc4cc(-c5cnn(C)c5)ccc4cn3)ccn2)CC1
- IC50 (second compound 0.0316 µM): 90.2 nM
- IC50 (second compound 0.1 µM): 107 nM
- IC50 (second compound 0.316 µM): < 3.16 nM
- IC50 (second compound 1 µM): < 3.16 nM
- IC50 (second compound 3.16 µM): < 3.16 nM
- IC50 (second compound 10 µM): < 3.16 nM
- viability, T/C (second compound 0.0316 µM, first compound 0.00316 µM): 61.5%
- viability, T/C (second compound 0.0316 µM, first compound 0.01 µM): 53.1%
- viability, T/C [1]: 50.2%
- viability, T/C [2]: 52.2%
- viability, T/C [3]: 35.8%
- viability, T/C [4]: 9.26%
- viability, T/C (second compound 0.1 µM, first compound 0.00316 µM): 50.9%
- viability, T/C (second compound 0.1 µM, first compound 0.01 µM): 49.9%
- viability, T/C [5]: 47.9%
- viability, T/C [6]: 58.3%
- viability, T/C [7]: 23.7%
- viability, T/C [8]: 5.24%
- viability, T/C (second compound 0.316 µM, first compound 0.00316 µM): 40.4%
- viability, T/C (second compound 0.316 µM, first compound 0.01 µM): 36.4%
- viability, T/C [9]: 15%
- viability, T/C [10]: 9.88%
- viability, T/C [11]: 4.62%
- viability, T/C [12]: 6.11%
- viability, T/C (second compound 1 µM, first compound 0.00316 µM): 5.48%
- viability, T/C (second compound 1 µM, first compound 0.01 µM): 4.65%
- viability, T/C [13]: 8.79%
- viability, T/C [14]: 7.58%
- viability, T/C [15]: 5.31%
- viability, T/C [16]: 2.58%
- viability, T/C (second compound 3.16 µM, first compound 0.00316 µM): 9.55%
- viability, T/C (second compound 3.16 µM, first compound 0.01 µM): 6.32%
- viability, T/C [17]: 5.67%
- viability, T/C [18]: 8.5%
- viability, T/C [19]: 4.73%
- viability, T/C [20]: 2.6%
- viability, T/C (second compound 10 µM, first compound 0.00316 µM): 1.57%
- viability, T/C (second compound 10 µM, first compound 0.01 µM): 2.38%
- viability, T/C [21]: 4%
- viability, T/C [22]: 4.91%
- viability, T/C [23]: 3.1%
- viability, T/C [24]: 0.67%

Compound: COC1C=CCC(C)C(C)S(=O)(=O)NC(=O)c2ccc3c(c2)N(CC2CCC21)CC1(CCCc2cc(Cl)ccc21)CO3 (stereo unspecified) + CNC(=O)c1ccc(Nc2nc(OC3CCCC3)c3c(-c4ccc5nc(C)oc5c4)c[nH]c3n2)c(OC)c1
- IC50 (second compound 0.0316 µM): 2000 nM
- IC50 (second compound 0.1 µM): 142 nM
- IC50 (second compound 0.316 µM): < 31.6 nM
- IC50 (second compound 1 µM): < 31.6 nM
- IC50 (second compound 3.16 µM): < 31.6 nM
- IC50 (second compound 10 µM): < 31.6 nM
- viability, T/C [1]: 103%
- viability, T/C [2]: 87.7%
- viability, T/C [3]: 64.8%
- viability, T/C [4]: 55.4%
- viability, T/C (second compound 0.0316 µM, first compound 3.16 µM): 48.4%
- viability, T/C (second compound 0.0316 µM, first compound 10 µM): 43.5%
- viability, T/C [5]: 58.7%
- viability, T/C [6]: 51%
- viability, T/C [7]: 47.7%
- viability, T/C [8]: 40.3%
- viability, T/C (second compound 0.1 µM, first compound 3.16 µM): 34.8%
- viability, T/C (second compound 0.1 µM, first compound 10 µM): 34.3%
- viability, T/C [9]: 46.3%
- viability, T/C [10]: 49.7%
- viability, T/C [11]: 36.7%
- viability, T/C [12]: 33.1%
- viability, T/C (second compound 0.316 µM, first compound 3.16 µM): 35.8%
- viability, T/C (second compound 0.316 µM, first compound 10 µM): 33.4%
- viability, T/C [13]: 51.2%
- viability, T/C [14]: 45.9%
- viability, T/C [15]: 36.9%
- viability, T/C [16]: 35.9%
- viability, T/C (second compound 1 µM, first compound 3.16 µM): 46%
- viability, T/C (second compound 1 µM, first compound 10 µM): 34.6%
- viability, T/C [17]: 43.2%
- viability, T/C [18]: 41.1%
- viability, T/C [19]: 33.4%
- viability, T/C [20]: 29.4%
- viability, T/C (second compound 3.16 µM, first compound 3.16 µM): 30.9%
- viability, T/C (second compound 3.16 µM, first compound 10 µM): 25.4%
- viability, T/C [21]: 40.1%
- viability, T/C [22]: 38.4%
- viability, T/C [23]: 32.1%
- viability, T/C [24]: 30.5%
- viability, T/C (second compound 10 µM, first compound 3.16 µM): 35.9%
- viability, T/C (second compound 10 µM, first compound 10 µM): 26.4%
